In EP4644389A1, “PRMT5-MTA INHIBITOR” (Suzhou Puhe Biopharma Co., Ltd., priority 2022, dated 2024):

How the values were obtained:
HCT116-MTAPwt = test: 2D anti-proliferation assay (CTG luminescence), wild-type HCT116 cells; format: cell-based; details: Homo sapiens, HCT-116, 7-10 days incubation
Description: By testing the activity of both of them, the inhibitory effect and selectivity of the molecules of the present invention for PRMT5 at the cellular level were shown.
(§1) HCT116 wild-type and MTAP-deficient cells were cultured in MCCOYS 5A medium containing 10% FBS and 1% penicillin-streptomycin and incubated in a 37°C, 5% CO2 incubator. A 40 µL cell suspension was added to each well of a 384-well microplate. Using Echo, 40 nL of the compound at different concentrations were added to each well, followed by incubation in a 37°C, 5% CO2 incubator for 7-10 days. 40 µL of CTG solution (Promega, Cat No. G7573) was added to each well and incubated away from light in a 37°C, 5% CO2 incubator for 30 minutes. Luminescence was measured using an Envision multimode plate reader (Perkin Elmer, Catalog No. Envision 2104). The luminescence signal was proportional to the ATP content in the system, and the ATP content directly reflected the number of viable cells in the system.
ICso value calculation: [formula] • X: Log value of compound concentration • Y: Inhibition rate (%) Table 1: 2D Anti-proliferation Effects of Compounds on HTC116-MTAP del and Wild-type Colorectal Cancer HCT-116 Cell Lines.

[1] = Pharmacokinetic evaluation in mice (IV and oral); details: female, CD1, mouse, in vivo
Description: CD1 female mice were used as test animals, and the compounds were administered orally or intravenously (oral dose of 10 mg/kg; intravenous dose of 2 mg/kg).
Experiment protocol: Three mice per group for oral administration, and three mice per group for intravenous administration. Oral: Plasma samples were collected before administration (0 h) and at 0.25, 0.5, 1, 2, 4, 8, and 24 hours post-administration; Intravenous: Plasma samples were collected before administration (0 h) and at 0.083, 0.25, 0.5, 1, 2, 4, 8, and 24 hours post-administration. The plasma drug concentrations in mice after oral and intravenous administration were determined using LC/MS/MS, and the collected data were analyzed using AB Sciex QTRAP 6500 software.

HCT116-MTAPdel = test: 2D anti-proliferation assay (CTG luminescence), MTAP-deficient HCT116 cells; format: cell-based
Description: as §1

[2] = Liver microsomal stability, human; format: in vitro ADME; details: human liver microsomes 0.5 mg/mL, compound 1 µM, NADPH 1 mM, 60 minutes
Description: Microsomal stability experiment of the compound. The details are as follows: A microsomal stability test was conducted on the compounds of the present invention. The test compounds were co-incubated with liver microsomes from different species, with or without the addition of NADPH. In the test system, the final concentration of the test compound was 1 µM, the final concentration of NADPH was 1 mM, and the final concentration of liver microsomes was 0.5 mg/mL.

MDR1 (P-gp) = test: MDCK-MDR1 membrane permeability assay; format: in vitro ADME; details: dog; MDCK-MDR1, 1 µM, pH 7.4, 2 hours
Description: (§2) Evaluation of membrane permeability of the molecules of the present invention to predict their permeability for the brain.
(§3) Specifically: 1. Pre-incubate MDCK-MDR1 cells at a density of 1.56×10^6 cells/mL, inoculate them in a 96-well plate to culture at 37°C for 7 days; 2. Remove the MDCKII-MDR1 plate from the incubator, wash twice with pre-warmed HBSS (10 mM HEPES, pH 7.4), and incubate at 37°C for 30 minutes; 3. Dilute the stock solution of the test compound with DMSO to obtain a 0.2 mM solution, then further dilute it with HBSS (10 mM HEPES, pH 7.4) to prepare a 1 µM working solution. For the blank control group, dilute with DMSO to obtain a 0.2 mM solution, then further dilute with HBSS (10 mM HEPES, pH 7.4) to obtain a 1 µM working solution. The final concentration of DMSO in the culture system is 0.5%; 4. Measure the transport rate of the drug from the apical side to the basolateral side. Add 125 µL of the 1 µM test compound solution into the Transwell insert (apical chamber) and immediately transfer 50 µL of the sample (D0 sample) from the apical chamber to a new 96-well plate. Fill the receptor plate wells (basolateral chamber) with 235 µL HBSS (10 mM HEPES, pH 7.4) and incubate at 37°C for 2 hours; 5. At the end of the incubation, transfer 50 µL of the sample from both the donor side and the acceptor side into the wells of a new 96-well plate, then add four volumes of cold acetonitrile containing the appropriate internal standard (IS). Before the LC-MS/MS analysis, take 100 µL of the supernatant and mix it with an appropriate volume of ultrapure water. Papp = (VA×⌊drug⌋acceptor)/(Area×Time×⌊drug⌋initial,donor) [formula] wherein VA is the volume of the acceptor well (unit: mL), area is the membrane surface area (for Transwell-96 well permeable support, it is 0.143 cm^2), and time is the total transport time (in seconds). Efflux Ratio = Papp (B−A)/Papp (A−B) [formula]

MDCK-MDR1 cells = test: MDCK-MDR1 membrane permeability assay; format: in vitro ADME; details: MDCK-MDR1, Efflux Ratio = Papp (B-A)/Papp (A-B)
Description: as §2, §3

MDR1 = test: MDCK-MDR1 membrane permeability assay; format: in vitro ADME; details: dog, pH 7.4; MDCK-MDR1, Efflux Ratio = Papp (B-A)/Papp (A-B)
Description: as §2, §3

[3] = Caco-2 membrane permeability assay; format: in vitro ADME; details: human
Description: (§4) Evaluation of membrane permeability of the molecules of the present invention. Samples will be analyzed using LC-MS to estimate the apparent permeability coefficient (Papp) of the compound in Caco-2 monolayer cells, wherein the pH of the apical chamber is 6.5, and the pH of the basolateral chamber is 7.4. The P-gp efflux transporter, BCRP, and MRP2 inhibitors (50 µM quinidine, 30 µM benzbromarone, and 20 µM sulfasalazine) can block the active efflux transport of the compound. The data will be used for calculating apparent permeability (Papp). Papp = (VA×⌊drug⌋acceptor)/(Area×Time×⌊drug⌋initial,donor) [formula] wherein, VA is the volume of the receptor well (unit: mL), area is the membrane surface area (for Transwell-96 well permeable support, it is 0.143 cm^2), and time is the total transport time (unit: seconds). Efflux Ratio = Papp (B−A)/Papp (A−B) [formula]

Caco-2 monolayer cells = test: Caco-2 membrane permeability assay; format: in vitro ADME; details: Caco-2, Efflux Ratio = Papp (B-A)/Papp (A-B)
Description: as §4

[4] = Caco-2, apical pH 6.5, basolateral pH 7.4

## Cc1c(CO)c(N)nc2cc(F)c(C(=O)N(C)[C@@H]3COc4cc(C(F)(F)F)ccc43)cc12 [Compound A9a]
HCT116-MTAPwt
  IC50: 2470 nM
[1]
  bioavailability: 81%
[1]; iv, 2 mg/kg
  AUC(0-t): 19500 ng·h/mL
  C0: 4010 ng/mL
  clearance: 1.7 mL/min/kg
  half-life: 3.3 h
[1]; po, 10 mg/kg
  AUC(0-t): 74200 ng·h/mL
  Cmax: 5340 ng/mL
  Tmax: 2 h
  half-life: 5.9 h
HCT116-MTAPdel; Homo sapiens, HCT-116, HCT116 MTAP-deficient cells, 7-10 days incubation, CTG, read-out: HCT116-MTAPdel/IC50/nM
  IC50: 16 nM
HCT116-MTAPdel; ratio of IC50 HCT116 WT / MTAPdel
  HCT116 WT/MTAPdel Selectivity: 130
[2]
  CLint scaled at 1 µM: 8.9 mL/min/kg
MDR1 (P-gp)
  Papp A→B at 2 h, 1 µM: 5.1 ×10⁻⁶ cm/s
  Papp B→A at 2 h, 1 µM: 5.9 ×10⁻⁶ cm/s
MDCK-MDR1 cells
  Efflux: 1.2
MDR1
  efflux ratio at 2 h, 1 µM: 1.2
[3]; Caco-2, Efflux Ratio = Papp (B-A)/Papp (A-B)
  efflux ratio: 1.6
[3]; [4]
  Papp A→B: 6.9 ×10⁻⁶ cm/s
  Papp B→A: 10.8 ×10⁻⁶ cm/s
Caco-2 monolayer cells
  Efflux: < 2
